Assay results as given in patent US9907846B2 (priority 2013, dated 2018).
Values joined by “and” are separate entries in the source; they are usually repeats but may differ in a detail not shown here. Equal values may be shown once. One block for each compound: values may come before it.

How the values were obtained:
[1] = system: PC-3 prostate cancer cells; assay: cells; format: cell-based, human
Experimental: The samples were 5-fold serially diluted in 6 steps starting from the concentration of 100 μg/ml, and incubated with PC-3 prostate cancer cells for 3 days. Then the cells were stained and read by the FMCA method.
Then the cells were stained and the cancer cell killing effect was read by the FMCA method.

[2] = Water solubility of drugs incorporated into G3 particles; conditions: drug alone or incorporated into G3 particles
HL-60 AML cells = assay: FMCA cancer cell killing on HL-60 AML cells; format: cell-based, human; conditions: 3 days, selected concentrations
Experimental: The FMCA method is based on measurement of fluorescence generated from hydrolysis of fluorescein diacetate (FDA) to fluorescein by cells with intact plasma membranes. After above mentioned incubation for 3 days, the medium was removed by aspiration. After one wash with PBS, 100 μl/well of FDA dissolved in a physiological buffer (10 μg/ml) was added. The plates were incubated for 45 minutes and the generated fluorescence from each well was measured in a 96-well scanning fluorometer. The fluorescence is proportional to the number of intact cells in the well. Quality criteria for a successful analysis included a fluorescence signal in the control wells of more than five times of the mean blank value, a mean co-efficient of variation (CV) in the control wells of less than 30%.
The nanoparticles G3 and G3-DT formulated as described in Ex 1 and 2 were compared with the active component QHC form for the cancer cell killing effect. The samples were 5-fold serial diluted in 6 steps starting from 100 μg/ml, and incubated for 3 days with HL-60 AML cells. Then the cells were stained and read by the FMCA method.
HL-60 AML cells were exposed for 3 days at pre-determined concentrations of G3 and cytarabine separately and in combination of these two as shown on FIG. 7. Then the cells were stained and read for cancer cell killing effect by the FMCA method. […]

[3] = Detection of vitamin D3 in the water phase (DiaSorin Liaison); format: physicochemical
Experimental: Samples with cholecalciferol (vitamin D3) incorporated in G3 particles were analysed at a University Hospital Laboratory on a Liaison automatic instrument. Although the assay (DiaSorin Liaison) is designed to measure 25-HO-D3 it has about one percent cross-reactivity with non-hydroxylated vitamin D3.
First, 50% cholesterol and 50% vitamin D3 were used to form the lipid membrane. Quil A was added into the water phase to generate the G3 particles (for details, please refer to Example 1). 100% Cholesterol and 100% Vitamin D3 in water were used as the controls. Samples with vitamin D3 incorporated in G3 particles were analysed at the Uppsala University Hospital Laboratory on a DiaSorin Liaison automatic instrument.

Experimental for U937 cells: The read out was the particle formulation i.e. the extraction of the membrane into the quillaja micell, the anticancer cell killing effect tested on U937 cancer cells and the stimulation of IL-8 of the same cells (see Materials and Methods).
The Alamar Blue assay was used essentially according recommendations from the supplier (Serotec Ltd, Oxford, UK). Briefly, the cells were adjusted to 1×10^5 cells/ml in cell culture medium and 200 μl/well cells in 96-well plates (Nunc, Roskilde, Denmark). Then various QS formulations or medium alone (as control) was added in triplicates and incubated 3 days at 37° C. in humidified atmosphere containing 5% CO2. Alamar Blue was added to a final concentration of 10% to the wells after specified time points. The cell metabolic activity was subsequently measured up to 8 hrs.
Free form of QA is used as positive control. The cell metabolism activity is analyzed by Alamar Blue at 570 and 600 nm.

Structure (SMILES): CO[C@H]1C(=O)[C@]2(C)[C@@H](OC)C[C@H]3OC[C@@]3(OC(C)=O)[C@H]2[C@H](OC(=O)c2ccccc2)[C@]2(O)C[C@H](OC(=O)[C@H](O)[C@@H](NC(=O)OC(C)(C)C)c3ccccc3)C(C)=C1C2(C)C [Cabazitaxel, cabazitaxel]
- IC50 ([1]; Homo sapiens, 72 h): 25.5 µM

Structure (SMILES): N[C@H]1C(O)O[C@H](CO)[C@H](O)[C@@H]1O (stereo partly drawn) [Galactosamine]
- EC50 (U937 cells): 0.367 µg/mL and 0.389 µg/mL and 0.214 µg/mL

- solubility in water (visual) [2]: clear solutions
Structure (SMILES): CS(=O)(=O)OCCCCOS(C)(=O)=O [busulfan]

Structure (SMILES): Nc1ccn([C@@H]2O[C@H](CO)[C@@H](O)[C@@H]2O)c(=O)n1 [cytarabine]
- cells killed (HL-60 AML cells): < 55%

Structure (SMILES): CC(=O)O[C@@]12CO[C@@H]1C[C@H](O)[C@@]1(C)C(=O)[C@H](O)C3=C(C)[C@@H](OC(=O)[C@H](O)[C@@H](NC(=O)OC(C)(C)C)c4ccccc4)C[C@@](O)([C@@H](OC(=O)c4ccccc4)[C@H]21)C3(C)C [docetaxel]
- cells killed ([1]; PC-3 cells, 3 days, selected concentrations, FMCA): > 2%

Structure (SMILES): C=C1CC[C@H](O)C/C1=C/C=C1\CCC[C@]2(C)[C@@H]([C@H](C)CCCC(C)C)CC[C@@H]12 [vitamin D3 control, cholecalciferol]
- vitamin D3 detected in the water phase [3]: only trace amount
